Laboratory results as given in patent publication US7390836B2, “Small molecules used to increase cell death” (priority 1999, dated 2008).
Where two headings read alike, the source gives them in different places.

Assays:
BH3/Bcl-xL binding = test: SELDI binding assay, unlabeled Bak BH3 peptide on immobilized Bcl-xL-His6; conditions: for relative activity in SELDI assay: comparison between compounds
Excerpt: To test the possibility that BH3Is target the OREGON GREEN moiety of the fluorescently labeled BH3 peptide, a novel BH3/Bcl-xL binding assay using unlabeled BH3 peptide was designed. In this assay Bcl-xL was covalently attached to a surface-enhanced laser desorption/ionization (SELDI) chip, and binding of the unlabelled BH3 peptide to the immobilized protein was monitored by mass spectrometry. Specifically, purified recombinant GST-Bcl-2 and BCL-xL-His6 were coupled through their primary amines to SELDI chip surfaces derivatized with carbonyldiimidazole (Ciphergen). Bak BH3 peptide was then added (in a total volume of 1 μl) for 12 hours at 4° C. in a humidified chamber, to allow binding to each spot of the SELDI chip. The chip was then washed with alternating high and low pH-0.1M sodium acetate with 0.5M NaCl, followed by 0.01M HEPES; pH 7.3. The samples were embedded in α-cyanno-4-hydroxycinnamaic acid matrix and analyzed for mass by MALDI TOF. An average of 100 laser shots at a constant setting were collected over 20 spots in each sample.

[1] = molecular target: T1, Bad-GFP with Bcl-2 or Bcl-xL in BSC-1 cells (Homo sapiens, UniProt Q07817); test: Bad-GFP localization in intact cells; assay type: cell-based; conditions: for mitochondrial targeting and heterodimerization of Bad-GFP: BH3I-1 100 μM, BH3I-2 50 μM, 6 hr, 100 μM zVAD; for order of activities, Bad-GFP localization: rank order
T1 construct: expressed in transfected cells; host or cells: BSC-1 cells
Description: Bad is a pro-apoptotic member of the Bcl-2 family, whose apoptosis-promoting activity and mitochondrial targeting depends on heterodimerization with anti-apoptotic Bcl-2 family members (Zha et al., Cell 87, 619-28, 1996). To examine the effects of BH3Is on Bad localization, BSC-1 cells were transfected with 5 μg of Bad-GFP expression vector alone (FIG. 8D, panels 1 […]) or were co-transfected with 5 μg of Bad-GFP and 5 μg of Bcl-xL-T7 (FIG. 8D, panels 2-5). Twenty four hours after transfection, cells were treated with BH3I-1 (100 μM; FIG. 8D, panel 4) or BH3I-2 (50 μM; FIG. 8D, panel 5) for 6 hr. In order to determine mitochondrial localization, cells were pre-stained with MitoTracker Red CMXRos for 30 min prior to fixation (FIG. 8D, panel 2). All cells in this study were pretreated with 100 μM zVAD to decrease the detrimental effects of overexpression of proapoptotic Bcl-2 proteins on cell viability.
(§1) BH3Is disrupted the mitochondrial association of Bad, but not Bcl-xL, after in vitro treatment of the mitochondria isolated from 293 cells co-transfected with Bad and Bcl-xL (FIG. 8C). The relative activities of the BH3Is in this assay (BH3I-2>BH3I-1>BH3I-1″) were consistent with the previous results. […] Again, the order of the activities in these assays was BH3I-2>BH3I-1>BH3I-1″.

Jurkat cells = test: Cytotoxicity by MTS assay and propidium iodide uptake; assay type: cell-based
Description: Since BH3Is induce apoptosis, their mode of action, for example, through disruption of BH3 domain interactions, was investigated next. If apoptosis induced by a BH3I is BH3-dependent, then cytotoxicity should correlate with the compound's ability to disrupt BH3 domain interactions in vitro. To examine this possibility, Jurkat cells were treated with the BH3 Is and the occurrence of cell death was assayed by the MTS assay and propidium iodide (PI) uptake (FIG. 7A). The cytotoxicity of BH3-Is followed the order of BH3I-2′>BH3I-2>BH3I-2″>BH3I-1>BH3I-1′>BH3I-1″>BH3I-1′″ which paralleled the order of their Ki values determined using in vitro Bcl-xL binding assays (FIGS. 7B and 7C). Similar data were obtained using a trypan blue exclusion assay.

[2] = system: tBid / Bcl-xL heterodimerization; test: tBid pulldown with Bcl-xL-His6 beads; assay type: binding; conditions: for effect on tBid binding to Bcl-xL: 35S labeled in vitro translated tBid; for relative activity in tBid pulldown: comparison between compounds
Description: Next, it was determined whether BH3Is could disrupt the heterodimerization of Bcl-xL with pro-apoptotic proteins from the Bcl-2 family, such as truncated Bid (tBid). Truncation of Bid by caspase-8 activates Bid and dramatically increases its affinity towards anti-apoptotic Bcl-2 family members (Li et al., Cell 94:491-501, 1998). To perform this study, in vitro translation of tBid or U2AF^65 (control) was performed using TNT® Coupled Reticulocyte and Wheat Germ Lysate Systems (Promega) respectively. Bcl-xL, U2AF^35 (control) or corresponding amounts of original Ni-NTA agarose beads (blank) were pre-incubated with the BH3 inhibitors or peptide in 100 μl of PBS for 30 min at 25° C. Then 1 μl of ^35S-labeled tBID or U2AF^65 was added and incubation was continued for 2 hr at 4° C. The samples were subjected to SDS-PAGE, coomassie blue staining and autoradiography.

[3] = molecular target: T2, Bad / Bcl-xL on mitochondria isolated from 293 cells (Homo sapiens, UniProt Q07817); test: Mitochondrial association of Bad in isolated mitochondria; conditions: rank order
T2 construct: expressed in transfected cells; host or cells: 293 cells (isolated mitochondria)
Description: FIG. 8C is an images of a the expression of Bad and Bcl-xL in 293 cells co-transfected with HA-Bad and Bcl-xL-T7. After 48 hr, cells were harvested and isolated mitochondria were treated with BH3Is for 2 hrs. Following treatment, mitochondria were pelleted by centrifugation and subjected to Western blot analysis using anti-HA and anti-T 7 antibodies.
as §1

[4] = MTS assay and PI uptake, rank order

T1 sequence (Q07817 whole entry): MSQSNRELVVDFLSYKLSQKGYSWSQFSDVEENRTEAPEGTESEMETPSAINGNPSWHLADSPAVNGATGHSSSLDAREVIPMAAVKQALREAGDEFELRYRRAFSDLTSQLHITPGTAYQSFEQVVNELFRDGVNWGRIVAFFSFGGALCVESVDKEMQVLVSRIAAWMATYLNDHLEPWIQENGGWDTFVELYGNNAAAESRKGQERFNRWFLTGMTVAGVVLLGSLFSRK
T2 sequence (Q07817 whole entry): as above

SMILES: CC(C)C(C(=O)O)N1C(=O)C(=Cc2ccc(Br)cc2)SC1=S (stereo in doubt) [BH3I-1]
- effect on BH3 peptide binding to Bcl-xL-modified SELDI surface (BH3/Bcl-xL binding): reduction of BH3 binding
- mitochondrial targeting and heterodimerization of Bad-GFP [1]: efficiently disrupted mitochondrial targeting and heterodimerization of Bad-GFP
- order of activities, Bad-GFP localization [1]: BH3I-2>BH3I-1>BH3I-1″
- order of cytotoxicity (Jurkat cells; [4]): BH3I-2′>BH3I-2>BH3I-2″>BH3I-1>BH3I-1′>BH3I-1″>BH3I-1′″
- effect on tBid binding to Bcl-xL [2]: dose-dependent decrease in the tBid binding
- relative activity in tBid pulldown [2]: lower activity than BH3I-2
- relative activities, mitochondrial association of Bad [3]: BH3I-2>BH3I-1>BH3I-1″

SMILES: CC(C)C(C(=O)O)N1C(=O)/C(=C/c2ccccc2)SC1=S (stereo not shown) [BH3I-1″]
- relative activity in SELDI assay (BH3/Bcl-xL binding): lower potency than BH3I-1
- order of activities, Bad-GFP localization [1]: BH3I-2>BH3I-1>BH3I-1″
- order of cytotoxicity (Jurkat cells): BH3I-2′>BH3I-2>BH3I-2″>BH3I-1>BH3I-1′>BH3I-1″>BH3I-1′″
- relative activity in tBid pulldown [2]: even lower
- relative activities, mitochondrial association of Bad [3]: BH3I-2>BH3I-1>BH3I-1″

SMILES: O=C(Nc1cc(S(=O)(=O)c2ccc(Cl)cc2)ccc1Cl)c1cc(Cl)cc(Br)c1O [BH3I-2]
- effect on BH3 peptide binding to Bcl-xL-modified SELDI surface (BH3/Bcl-xL binding): reduction of BH3 binding
- relative activity in SELDI assay (BH3/Bcl-xL binding): higher activity than BH3I-1
- mitochondrial targeting and heterodimerization of Bad-GFP [1]: efficiently disrupted mitochondrial targeting and heterodimerization of Bad-GFP
- order of activities, Bad-GFP localization [1]: BH3I-2>BH3I-1>BH3I-1″
- order of cytotoxicity (Jurkat cells; [4]): BH3I-2′>BH3I-2>BH3I-2″>BH3I-1>BH3I-1′>BH3I-1″>BH3I-1′″
- effect on tBid binding to Bcl-xL [2]: dose-dependent decrease in the tBid binding
- relative activities, mitochondrial association of Bad [3]: BH3I-2>BH3I-1>BH3I-1″
